Measured values taken from patent publication US9585386B2, “Microbicidal composition” (Dow Global Technologies LLC, priority 2013, dated 2017).
“And” between values parts separate entries of the source, which are not always exact repeats. Identical values can stand only once. Like-named read-outs stand apart in the source and are kept apart here.

What was measured:
Type in all cases: cell-based
any organism tested = experiment: Synergy of other biocides paired with surfactants; conditions: for ratio of surfactant to biocide where synergy was observed: not commercially relevant (less biocide relative to surfactant)
Experimental: (§1) Surfactants and biocides were evaluated for synergy by determining the synergy index (S.I.) of the combination. Synergy index was calculated based on minimum inhibitory concentrations (MIC) of two antimicrobial compounds (A and B) alone and in combinations. The tests organisms were Gram negative bacteria (Pseudomonas aeruginosa ATCC #15442), Gram positive bacteria (Staphylococcus aureus ATCC #6538), yeast (Candida albicans ATCC #10203) and mold (Aspergillus niger ATCC#16404). Contact time for the bacteria was 24 and 48 hours, yeast was 48 and 72 hrs, and 3 and 7 days for mold. The test was carried out in 96 well microtiter plates. • Surf. A R^1O(CH2CH(CH3)O)5(CH2CH2O)9H, where R^1 is 2-ethylhexyl • Surf. D R^2O(CH2CH(CH3)O)3(CH2CH2O)5H • Surf. E R^2O(CH2CH(CH3)O)3(CH2CH2O)7H In Surf. D and Surf. E, R^2 is a mixture of C8-C14 linear alkyl groups (70% C8-C10 linear alkyl and 30% C12-C14 linear alkyl) Inoculums Used
(§2) SI is calculated as follows: Ca/CA+Cb/CB=Synergy Index (“SI”)
(§3) Wherein: • CA=concentration of compound A in ppm, acting alone, which produced an end point (MIC of Compound A). • Ca=concentration of compound A in ppm, in the mixture, which produced an end point. • CB=concentration of compound B in ppm, acting alone, which produced an end point (MIC of Compound B). • Cb=concentration of compound B in ppm, in the mixture, which produced an end point. When the sum of Ca/CA and Cb/CB is greater than one, antagonism is indicated.
A • Sodium Benzoate, TRIS NITRO Surf. E • DMDMH Surf. […] At these ratios, the biocide levels in a formulated product would be too low to be practical: Surf. A • DIDAC, IPBC Surf. E • CMIT/MIT, IPBC, OIT, TTPC, WSCP Surf.

[1] = tested on: Pseudomonas aeruginosa ATCC #15442; experiment: MIC / synergy index test in 96 well microtiter plates, Gram negative bacteria; conditions: for Cb (concentration of compound B in the mixture which produced an end point): 1/10 TSB, 24 hrs; for MIC: Pseudomonas aeruginosa, ATCC15442, 24 h
Experimental: as §1
(§4) The pH of the Triptic soy broth was 7.3 and the Potato dextrose broth was 5.1.
as §2, §3

[2] = tested on: Aspergillus niger ATCC#16404; experiment: MIC / synergy index test in 96 well microtiter plates, mold; conditions: PDB, 3rd day; for MIC: Aspergillus niger, ATCC16404, read-out: CB (MIC of compound B alone), MIT alone, inoculum 1.156E+06 CFU/ml; for Cb (concentration of compound B in the mixture which produced an end point): 1.156E+06 CFU/ml
Experimental: as §1, §4, §2, §3

[3] = tested on: Candida albicans ATCC #10203; experiment: MIC / synergy index test in 96 well microtiter plates, yeast; conditions: for CB (MIC of compound B alone): MIT alone; for CB (MIC of compound B alone) / Cb (concentration of compound B in the mixture which produced an end point): PDB, 48 hrs
Experimental: as §1, §4, §2, §3

[4] = tested on: Staphylococcus aureus ATCC #6538; experiment: MIC / synergy index test in 96 well microtiter plates, Gram positive bacteria
Experimental: as §1, §4, §2, §3

Compound: CCC12COCN1COC2 [CS-1246]
- Synergy against any organism tested (any organism tested; biocide paired with Surf. D): no synergy

Compound: Oc1ccccc1-c1ccccc1 [OPP]
- Synergy against any organism tested (any organism tested; biocide paired with Surf. D): no synergy

Compound: O=[N+]([O-])C(CO)(CO)CO [TRIS NITRO]
- Synergy against any organism tested (any organism tested; biocide paired with Surf. A): no synergy

Compound: CC1(C)C(=O)N(CO)C(=O)N1CO [DMDMH]
- Synergy against any organism tested (any organism tested; biocide paired with Surf. D): no synergy
- Synergy against any organism tested (any organism tested; biocide paired with Surf. E): no synergy

Compound: Cn1sccc1=O [MIT, 2-methyl-4-isothiazolin-3-one]
- Cb (concentration of compound B in the mixture which produced an end point) ([1]; MIT in mixture with Surf. A, 8.134E+07 CFU/ml): 30 ppm
- Cb (concentration of compound B in the mixture which produced an end point) ([1]; MIT in mixture with Surf. D, 1.16E+08): 20 ppm
- MIC ([1]; read-out: CB (MIC of compound B alone), MIT alone, Surf. A series, 1/10 TSB, inoculum 8.134E+07 CFU/ml): 40 µg/mL
- MIC ([1]; read-out: CB (MIC of compound B alone), MIT alone, Surf. D series, 1/10 TSB, inoculum 1.16E+08): 30 µg/mL
- MIC ([2]; Surf. A series): 400 µg/mL
- MIC ([2]; Surf. E series): 300 µg/mL
- Cb (concentration of compound B in the mixture which produced an end point) ([2]; MIT in mixture with Surf. A): 300 ppm
- Cb (concentration of compound B in the mixture which produced an end point) ([2]; MIT in mixture with Surf. E): 200 ppm
- MIC ([3]; Candida albicans, ATCC10203, 48 h, read-out: CB (MIC of compound B alone)): 200 µg/mL
- CB (MIC of compound B alone) ([3]; Surf. D series, inoculum 5.726E+05 CFU/ml): 200 ppm
- CB (MIC of compound B alone) ([3]; Surf. E series, inoculum 1.808E+06): 200 ppm
- Cb (concentration of compound B in the mixture which produced an end point) ([3]; MIT in mixture with Surf. A, 1.156E+06 CFU/ml): 100 ppm
- Cb (concentration of compound B in the mixture which produced an end point) ([3]; MIT in mixture with Surf. D, 5.726E+05 CFU/ml): 50 ppm and 60 ppm and 80 ppm and 100 ppm
- CB (MIC of compound B alone) ([4]; MIT alone, Surf. E series, 1/10 TSB, inoculum 1.808E+06 CFU/ml, 24 hrs): 60 ppm
- Cb (concentration of compound B in the mixture which produced an end point) ([4]; MIT in mixture with Surf. E, 1/10 TSB, 1.808E+06 CFU/ml, 24 hrs): 50 ppm and 40 ppm and 30 ppm
- MIC ([4]; Staphylococcus aureus, ATCC6538, 24 h, read-out: CB (MIC of compound B alone)): 60 µg/mL

Compound: CCCCCCCCCCCCCC[P+](CCCC)(CCCC)CCCC.[Cl-] [TTPC]
- ratio of surfactant to biocide where synergy was observed (any organism tested; biocide paired with Surf. E): 1:0.2 or greater

Compound: CCCCCCCCCC[N+](C)(C)CCCCCCCCCC.[Cl-] [DIDAC]
- ratio of surfactant to biocide where synergy was observed (any organism tested; biocide paired with Surf. A): 1:0.2 or greater
- ratio of surfactant to biocide where synergy was observed (any organism tested; biocide paired with Surf. D): 1:0.2 or greater

Compound: CCCCNC(=O)OCC#CI [IPBC]
- ratio of surfactant to biocide where synergy was observed (any organism tested; biocide paired with Surf. A): 1:0.2 or greater
- ratio of surfactant to biocide where synergy was observed (any organism tested; biocide paired with Surf. D): synergistic only at 1:0.05 or worse
- ratio of surfactant to biocide where synergy was observed (any organism tested; biocide paired with Surf. E): 1:0.2 or greater

Compound: CCCCCCCCn1sccc1=O [OIT]
- ratio of surfactant to biocide where synergy was observed (any organism tested; biocide paired with Surf. D): 1:0.2 or greater
- ratio of surfactant to biocide where synergy was observed (any organism tested; biocide paired with Surf. E): 1:0.2 or greater

Compound: O=C([O-])c1ccccc1.[Na+] [Sodium Benzoate]
- Synergy against any organism tested (any organism tested; biocide paired with Surf. A): no synergy

Compound: Cn1sc2ccccc2c1=O [MBIT]
- ratio of surfactant to biocide where synergy was observed (any organism tested; biocide paired with Surf. D): synergistic only at 1:0.05 or worse
